{"source": "patent US20150203474A1", "about": "“SOLID FORMS COMPRISING INHIBITORS OF HCV NS5A, COMPOSITIONS THEREOF, AND USES THEREWITH” (PRESIDIO PHARMACEUTICALS ,INC., priority 2012, published 2015)", "key": {"[1]": {"system": "HCV genotype 3a replicon", "test": "HCV replicon assay, GT 3a (luciferase readout)", "assay_type": "cell-based", "conditions": "Hepatitis C virus; GT 3a replicon; n > 3", "procedure": "(§1) Biological activity of the compounds of the invention was determined using an HCV replicon assay. The 1b_Huh-Luc/Neo-ET cell line persistently expressing a bi-cistronic genotype 1b replicon in Huh 7 cells was obtained from ReBLikon GMBH. This cell line was used to test compound inhibition using luciferase enzyme activity readout as a measurement of compound inhibition of replicon levels.\n(§2) On Day 1 (the day after plating), each compound was added in triplicate to the cells. Plates incubated for 72 hrs prior to running the luciferase assay. Enzyme activity was measured using a Bright-Glo Kit (cat. number E2620) manufactured by Promega Corporation. The following equation was used to generate a percent control value for each compound.\n(§3) % Control=(Average Compound Value/Average Control)*100\n(§4) The EC50 value was determined using GraphPad Prism and the following equation:\n(§5) Y=Bottom+(Top−Bottom)/(1+10̂((LogIC50−X)*HillSlope))\n(§6) EC50 values of compounds are repeated several times in the replicon assay.\n(§7) The disclosed compounds can inhibit multiple genotypes of HCV including, but not limited to 1a, 1b, 2a, 3a, 4a and 5a. The EC50s are measured in the corresponding replicon assays that are similar to HCV 1b replicon assay as described above."}, "[2]": {"system": "HCV genotype 4a replicon", "test": "HCV replicon assay, GT 4a (luciferase readout)", "assay_type": "cell-based", "conditions": "Hepatitis C virus; GT 4a replicon; n > 3", "procedure": "as §1, §2, §3, §4, §5, §6, §7"}, "[3]": {"system": "HCV genotype 5a replicon", "test": "HCV replicon assay, GT 5a (luciferase readout)", "assay_type": "cell-based", "conditions": "Hepatitis C virus; GT 5a replicon; n > 3", "procedure": "as §1, §2, §3, §4, §5, §6, §7"}, "[4]": {"system": "HCV genotype 1a replicon", "test": "HCV replicon assay, GT 1a (luciferase readout)", "assay_type": "cell-based", "conditions": "Hepatitis C virus; GT 1a replicon; n > 3", "procedure": "as §1, §2, §3, §4, §5, §6, §7"}, "[5]": {"system": "HCV genotype 2a replicon", "test": "HCV replicon assay, GT 2a (luciferase readout)", "assay_type": "cell-based", "conditions": "Hepatitis C virus; GT 2a replicon; n > 3", "procedure": "as §1, §2, §3, §4, §5, §6, §7"}, "[6]": {"system": "bi-cistronic genotype 1b replicon in Huh 7 cells (1b_Huh-Luc/Neo-ET cell line)", "test": "HCV replicon assay, GT 1b (luciferase readout)", "assay_type": "cell-based", "conditions": "Hepatitis C virus, GT 1b replicon, n > 3", "procedure": "as §1, §2, §3, §4, §5, §6"}, "[7]": {"test": "Moisture sorption profile (DVS) of Compound II Form I and amorphous Compound II", "assay_type": "physicochemical", "conditions": "DVS at 25° C.", "procedure": "The moisture sorption profile was generated of the sample as well as of a sample of amorphous Compound II at 25° C. using a DVS Moisture Balance Flow System (Model Advantage) with the following conditions: sample size approximately 10 mg, drying 25° C. for 60 minutes, adsorption range 0% to 95% RH, desorption range 95% to 0% RH, and step interval 5%. The equilibrium criterion was <0.01% weight change in 5 minutes for a maximum of 120 minutes."}, "[8]": {"test": "Solubility of Form I and free base compound 4-3 (visual and HPLC assay of filtrate)", "assay_type": "physicochemical", "conditions": "for pH (Filtrated): filtrate of solubility sample; for HPLC Solubility / Visual Solubility (observation in words) / solubility at 24 h: target conc. 2.0 mg/mL; for HPLC Solubility / solubility at 24 h: 24 hours ambient, 0.45-μm filtrate; for solubility at 24 h: thermodynamic from solid, read-out: HPLC Solubility", "procedure": "Solubility of Form I as well as the free base compound 4-3 was tested. Solubility was measured by placing a small quantity of the compound to be analyzed in a glass vial, capping and rotating the vial overnight at ambient conditions (24 hours). Target concentration was 2.0 mg/mL. The samples were filtrated with 0.45-μm filters. The subsequent filtrate was collected for HPLC assay. HPLC conditions are shown in Table 10 in Appendix A. Solubility for Form I is shown in Table 11 and for the free base compound 4-3 is shown in Table 12 in Appendix A. [table]"}}, "note": "Like-named read-outs stand apart in the source and are kept apart here."}
{"smiles": "COC(=O)N[C@H](C(=O)N1CCC[C@H]1c1ncc(-c2ccc3cc(-c4ccc5nc([C@@H]6CCCN6C(=O)[C@@H](NC(=O)OC)C(C)C)[nH]c5c4)ccc3c2)[nH]1)C(C)C", "note": "[Compound I]", "values": [{"measurement": "EC50", "setting": "[1]", "result": 1.26, "unit": "nM"}, {"measurement": "EC50", "setting": "[2]", "result": 0.052, "unit": "nM"}, {"measurement": "EC50", "setting": "[3]", "result": 0.039, "unit": "nM"}, {"measurement": "EC50", "setting": "[4]", "result": 0.135, "unit": "nM"}, {"measurement": "EC50", "setting": "[5]", "result": 0.139, "unit": "nM"}, {"measurement": "EC50", "setting": "[6]", "result": 0.016, "unit": "nM"}]}
{"smiles": "CC[C@H](C)[C@H](NC(=O)OC)C(=O)N1CCC[C@H]1c1nc2ccc(-c3ccc4cc(-c5cnc([C@@H]6CCCN6C(=O)[C@@H](NC(=O)OC)[C@@H](C)OC)[nH]5)ccc4c3)cc2[nH]1", "note": "[Compound II]", "values": [{"measurement": "EC50", "setting": "[1]", "result": 0.4, "unit": "nM"}, {"measurement": "EC50", "setting": "[2]", "result": 0.04, "unit": "nM"}, {"measurement": "EC50", "setting": "[3]", "result": 0.04, "unit": "nM"}, {"measurement": "EC50", "setting": "[4]", "result": 0.07, "unit": "nM"}, {"measurement": "EC50", "setting": "[5]", "result": 0.11, "unit": "nM"}, {"measurement": "EC50", "setting": "[6]", "result": 0.01, "unit": "nM"}]}
{"smiles": "CC[C@H](C)[C@H](NC(=O)OC)C(=O)N1CCC[C@H]1c1nc2ccc(-c3ccc4cc(-c5cnc([C@@H]6CCCN6C(=O)[C@@H](NC(=O)OC)[C@@H](C)OC)[nH]5)ccc4c3)cc2[nH]1", "note": "[amorphous Compound II]", "values": [{"measurement": "weight percentage change (water uptake) from 0-75% RH", "setting": "[7]", "result": 13.57, "unit": "%"}]}
{"smiles": "CC[C@H](C)[C@H](NC(=O)OC)C(=O)N1CCC[C@H]1c1nc2ccc(-c3ccc4cc(-c5cnc([C@@H]6CCCN6C(=O)[C@@H](NC(=O)OC)[C@@H](C)OC)[nH]5)ccc4c3)cc2[nH]1", "note": "[compound 4-3]", "values": [{"measurement": "pH (Filtrated)", "setting": "[8]; 0.1N HCl", "result": 1.09}, {"measurement": "HPLC Solubility", "setting": "[8]; 0.1N HCl", "result": 2066, "unit": "µg/mL"}, {"measurement": "pH (Filtrated)", "setting": "[8]; Water", "result": 8.83}, {"measurement": "Visual Solubility (observation in words)", "setting": "[8]; Water", "result": "Turbid +"}, {"measurement": "HPLC Solubility", "setting": "[8]; Water", "result": "<1", "unit": "µg/mL"}, {"measurement": "pH (Filtrated)", "setting": "[8]; pH 2 medium", "result": 2.17}, {"measurement": "HPLC Solubility", "setting": "[8]; pH 2 medium", "result": 2056, "unit": "µg/mL"}, {"measurement": "pH (Filtrated)", "setting": "[8]; pH 3 medium", "result": 3.59}, {"measurement": "Visual Solubility (observation in words)", "setting": "[8]; pH 3 medium", "result": "A few"}, {"measurement": "HPLC Solubility", "setting": "[8]; pH 3 medium", "result": 1763, "unit": "µg/mL"}, {"measurement": "pH (Filtrated)", "setting": "[8]; pH 4 medium", "result": 4.72}, {"measurement": "Visual Solubility (observation in words)", "setting": "[8]; pH 4 medium", "result": "Turbid +"}, {"measurement": "HPLC Solubility", "setting": "[8]; pH 4 medium", "result": 11, "unit": "µg/mL"}, {"measurement": "pH (Filtrated)", "setting": "[8]; pH 5 medium", "result": 5.27}, {"measurement": "HPLC Solubility", "setting": "[8]; pH 5 medium", "result": 1, "unit": "µg/mL"}, {"measurement": "solubility at 24 h", "setting": "[8]; pH 6 medium, pH 6, aqueous buffer, pH 6 medium", "result": "< 1", "unit": "µg/mL"}, {"measurement": "pH (Filtrated)", "setting": "[8]; pH 6 medium", "result": 6.04}, {"measurement": "Visual Solubility (observation in words)", "setting": "[8]; pH 6 medium", "result": "Turbid +"}, {"measurement": "solubility at 24 h", "setting": "[8]; pH 7 medium, pH 7, aqueous buffer, pH 7 medium", "result": "< 1", "unit": "µg/mL"}, {"measurement": "pH (Filtrated)", "setting": "[8]; pH 7 medium", "result": 7.00}, {"measurement": "Visual Solubility (observation in words)", "setting": "[8]; pH 7 medium", "result": "Turbid +"}, {"measurement": "solubility at 24 h", "setting": "[8]; pH 8 medium, pH 8, aqueous buffer, pH 8 medium", "result": "< 1", "unit": "µg/mL"}, {"measurement": "pH (Filtrated)", "setting": "[8]; pH 8 medium", "result": 7.91}, {"measurement": "Visual Solubility (observation in words)", "setting": "[8]; pH 8 medium", "result": "Turbid +"}]}
